Laboratory results as given in the supplement of paper PMC10307832.

Columns and labels:
Experiment in all cases: relative viability (nuclei count vs DMSO), 5 days (fraction); higher = more cells survive
[1] = compound: C1=CC=C(C(=C1)C2=CC=C(C=C2)C3=CSC4=C3C(=C(C(=O)N4)C#N)O)O + Nc1nc2[nH]cc(CCc3ccc(C(=O)N[C@@H](CCC(=O)O)C(=O)O)cc3)c2c(=O)[nH]1 [Pemetrexed] (partner 0.2 µM)
In short: (§1)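 Relative viability is defined as nuclei in treated wells over nuclei in vehicle wells. Duplicate plates were run and medians reported. Lung cancer cell lines in 1536-well plates were dosed by pin tool one day after seeding, with one drug or with a fixed anchor-drug dose plus five library-drug doses (not always all listed) in √10 steps, and nuclei were counted after 5 days.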

TGX 221 + Bortezomib = compound: CC1=CN2C(=O)C=C(N=C2C(=C1)C(C)NC3=CC=CC=C3)N4CCOCC4 [TGX 221] + CC(C)C[C@H](NC(=O)[C@H](Cc1ccccc1)NC(=O)c1cnccn1)B(O)O [Bortezomib] (partner 0.002 µM)
In short: as §1

TGX 221 + Luminespib = compound: CC1=CN2C(=O)C=C(N=C2C(=C1)C(C)NC3=CC=CC=C3)N4CCOCC4 [TGX 221] + CCNC(=O)c1noc(-c2cc(C(C)C)c(O)cc2O)c1-c1ccc(CN2CCOCC2)cc1 [Luminespib] (partner 0.01 µM)
In short: as §1

[2] = compound: O=C(CCCCCCNC(=O)c1cnc(N(c2ccccc2)c2ccccc2)nc1)NO [Ricolinostat] + CCNC(=O)c1noc(-c2cc(C(C)C)c(O)cc2O)c1-c1ccc(CN2CCOCC2)cc1 [Luminespib] (partner 0.01 µM)
In short: as §1

| Cell Line | relative viability ([1]; first compound 0.08 µM) | relative viability ([1]; first compound 0.253 µM) | relative viability ([1]; first compound 0.8 µM) | relative viability ([1]; first compound 2.53 µM) | relative viability ([1]; first compound 8 µM) | relative viability (TGX 221 + Bortezomib; first compound 0.08 µM) | relative viability (TGX 221 + Bortezomib; first compound 0.253 µM) | relative viability (TGX 221 + Bortezomib; first compound 0.8 µM) | relative viability (TGX 221 + Bortezomib; first compound 2.53 µM) | relative viability (TGX 221 + Bortezomib; first compound 8 µM) | relative viability (TGX 221 + Luminespib; first compound 0.08 µM) | relative viability (TGX 221 + Luminespib; first compound 0.253 µM) | relative viability (TGX 221 + Luminespib; first compound 0.8 µM) | relative viability (TGX 221 + Luminespib; first compound 2.53 µM) | relative viability (TGX 221 + Luminespib; first compound 8 µM) | relative viability ([2]; first compound 0.08 µM) | relative viability ([2]; first compound 0.253 µM) | relative viability ([2]; first compound 0.8 µM) | relative viability ([2]; first compound 2.53 µM) |
| --- | --- | --- | --- | --- | --- | --- | --- | --- | --- | --- | --- | --- | --- | --- | --- | --- | --- | --- | --- |
| NCI-H3122 | 0.19 | 0.201 | 0.22 | 0.213 | 0.19 | 1.02 | 1.04 | 0.969 | 0.941 | 1.02 | 0.1 | 0.0831 | 0.0649 | 0.0793 | 0.116 | 0.0722 | 0.0881 | 0.105 | 0.0921 |
| HCC-15 | 0.237 | 0.232 | 0.213 | 0.242 | 0.215 | 1.02 | 0.953 | 0.93 | 1.04 | 1.06 | 0.294 | 0.335 | 0.373 | 0.204 | 0.362 | 0.3 | 0.28 | 0.382 | 0.497 |
| NCI-H2009 | 0.97 | 1.04 | 1.02 | 1.1 | 1.08 | 0.995 | 1.02 | 1.02 | 0.948 | 0.769 | 1.05 | 1.02 | 1.09 | 1.02 | 0.665 | 0.99 | 0.927 | 0.91 | 0.84 |
| NCI-H23 | 0.536 | 0.619 | 0.59 | 0.627 | 0.653 | 0.861 | 1.21 | 1.11 | 1.03 | 0.963 | 0.196 | 0.225 | 0.217 | 0.21 | 0.208 | – | 0.203 | 0.214 | 0.169 |
| NCI-H1623 | – | – | – | – | – | – | – | – | – | – | 0.427 | 0.457 | 0.471 | 0.463 | 0.438 | 0.481 | 0.517 | 0.541 | 0.523 |
| NCI-H1734 | 0.396 | 0.403 | 0.462 | 0.401 | 0.448 | 0.876 | 0.893 | 0.853 | 0.779 | 0.823 | 0.232 | 0.178 | 0.202 | 0.17 | 0.18 | 0.197 | 0.19 | 0.185 | 0.178 |
| NCI-H2170 | 0.279 | 0.268 | 0.285 | 0.254 | 0.261 | – | – | – | – | – | 0.67 | 0.638 | 0.541 | 0.593 | 0.639 | 0.616 | 0.717 | 0.661 | 0.953 |
| NCI-H2342 | 0.769 | 0.938 | 0.713 | 0.755 | 0.712 | – | – | – | – | – | 0.919 | 0.652 | 0.584 | 0.544 | 0.607 | 0.541 | 0.78 | 0.835 | 0.762 |
| HCC-366 | – | 0.172 | 0.168 | 0.176 | 0.165 | 0.863 | 1.03 | 1.12 | 0.99 | 1.09 | – | – | – | – | – | – | – | – | – |
| HARA | 0.241 | 0.274 | 0.219 | 0.197 | 0.264 | 1.13 | 1.07 | 1.05 | 1.09 | 1.2 | 0.827 | 0.863 | 0.812 | 0.702 | 0.668 | 0.787 | 0.606 | 0.478 | 0.349 |
| NCI-H2087 | 0.608 | 0.671 | 0.675 | 0.67 | 0.747 | 0.832 | 0.759 | 0.916 | 0.956 | 1.06 | 0.118 | 0.16 | 0.151 | 0.15 | 0.166 | – | 0.205 | 0.15 | 0.159 |
| NCI-H1650 | 0.339 | 0.359 | 0.461 | 0.33 | 0.32 | 0.2 | 0.22 | 0.213 | 0.198 | 0.201 | 0.197 | 0.191 | 0.201 | 0.169 | 0.185 | 0.184 | 0.191 | 0.225 | 0.17 |
| NCI-H1563 | 0.64 | 0.688 | 0.774 | 0.746 | 0.783 | 0.925 | 0.783 | 0.795 | 0.719 | 0.687 | 0.499 | 0.525 | 0.538 | 0.515 | 0.523 | 0.553 | 0.502 | 0.508 | 0.525 |
| NCI-H1666 | 0.796 | 0.833 | 0.894 | 0.865 | 0.761 | 0.771 | 0.723 | 0.872 | 0.648 | 0.764 | 1.08 | 0.977 | 1.03 | 1.02 | 0.975 | 0.969 | 1.04 | 0.976 | 0.836 |
| LCLC-103H | 0.51 | 0.453 | 0.431 | 0.456 | 0.519 | 0.999 | 1.12 | 0.981 | 1.01 | 1.06 | 1.01 | 0.988 | 1.02 | 0.806 | 0.763 | 0.869 | 0.887 | 0.862 | 0.829 |
